Drawing on PMC6268061, “Investigation of the Biological Properties of (Hetero)Aromatic Thiosemicarbazones” (Molecules, 2012), this text covers log k, MIC and IC50 for ten compounds.

In general, MIC refers to the lowest concentration found to suppress growth. A word on the IC50: it is the concentration that gives 50% inhibition.

Converted amounts (≈) assume the structure as drawn. “And” between values parts separate entries of the source, which are not always exact repeats. Equal entries are not always repeated. Where two headings read alike, the source gives them in different places. Some results are limits rather than exact numbers.

Data set [1] can be described thus: Lipophilicity determination using RP-HPLC (capacity factor, log k). The data set is classed as physicochemical. The conditions noted are these: C18, MeOH 55%/H2O 45%. An excerpt: Reversed phase high performance liquid chromatography (RP-HPLC) methods have become popular and are widely used for lipophilicity measurements. The general procedure is the measurement of the directly accessible retention time under isocratic conditions using varying amounts of methanol as an organic modifier in the mobile phase using RP columns and calculating the logarithm of the capacity factors (log k). Log k is the logarithm of the capacity factors in chromatographic approaches that is related to the partitioning of a compound between a mobile and a (pseudo-)stationary phase. Log k is used as the lipophilicity index converted to log P scale.
A Waters Alliance 2695 XE HPLC separation module and a Waters Photodiode Array Detector 2996 (Waters Corp., Milford, MA, USA) were used. A Symmetry® C18 5 μm, 4.6 × 250 mm, Part No. WAT054275 (Waters Corp.) chromatographic column was used. The HPLC separation process was monitored using Empower™ 2 Chromatography Data Software, Waters 2009 (Waters Corp.). A mixture of MeOH p.a. (55%) and H2O-HPLC-Mili-Q Grade (45%) was used as a mobile phase. The total flow of the column was 0.9 mL/min, injection volume 30 μL, column temperature 30 °C and sample temperature 10 °C. A detection wavelength of 210 nm was chosen. A KI methanolic solution was used for the determination of dead time (tD). Retention times (tR) were measured in minutes. The capacity factors k were calculated using the Empower™ 2 Chromatography Data Software according to the formula k = (tR − tD)/tD, where tR is the retention time of the solute, whereas tD denotes the dead time obtained using an unretained analyte. Log k, calculated from the capacity factor k, is used as the lipophilicity index converted to log P scale.

The subject of data set [2] is Candida albicans ATCC 44859. The experiment in a line: In vitro antifungal susceptibility, broth microdilution. Format: cell-based. The conditions noted are these: read-out: MIC (IC80) CA.
The test system of data set [3] is Candida tropicalis 156. Described as above. Format: cell-based. The conditions noted are these: read-out: MIC (IC80) CT.
The test system of data set [4] is Candida krusei ATCC 6258. The description is as above. Format: cell-based. The following applies: Pichia kudriavzevii, read-out: MIC (IC80) CK.
Data set [5] has as its system Candida glabrata 20/I. The data set is described as above. The data set is classed as cell-based. The following applies: Nakaseomyces glabratus, read-out: MIC (IC80) CG.
The subject of data set [6] is Trichosporon beigelii 1188. The data set is described as above. Format: cell-based. An excerpt:
The broth microdilution test was used for the assessment of the in vitro antifungal activity of the synthesized compounds against Candida albicans ATCC 44859 (CA), Candida tropicalis 156 (CT), Candida krusei ATCC 6258 (CK), Candida glabrata 20/I (CG), Trichosporon beigelii 1188 (TB), Aspergillus fumigatus 231 (AF), Absidia corymbifera 272 (AC), and Trichophyton mentagrophytes 445 (TM). Fluconazole (FLU) was used as the standard since it is a clinically used antimycotic drug. The procedure was performed using a twofold dilution of the compounds in RPMI 1640 (Sevapharma a.s., Prague, Czech Republic) buffered to pH 7.0 with […] of 3-morpholino-propane-1-sulfonic acid (MOPS, Sigma, Prague, Czech Republic). The final concentrations of the compounds ranged from 500 to 0.975 μmol/L. Drug-free controls were included. The determination of minimum inhibitory concentration (MIC) was performed according to the Clinical and Laboratory Standards Institute (CLSI, formerly NCCLS) reference protocol M27-A2 for yeasts (IC80 value) and M38-A for moulds (IC50 value). IC80 and IC50 were defined as an 80% resp. 50% or greater reduction in growth in comparison with the control. The values of MICs were determined after 24 and 48 h of static incubation at 35 °C. The final MICs for T. mentagrophytes, were determined after 72 and 120 h of incubation.

Data set [7] has as its system Aspergillus fumigatus 231. Described as above. Format: cell-based. The conditions noted are these: read-out: MIC (IC50) AF.
In data set [8] the test system is Absidia corymbifera 272. The description is as above. The following applies: read-out: MIC (IC50) AC. Format: cell-based.
The subject of data set [9] is Trichophyton mentagrophytes 445. Described as above. Format: cell-based. The following applies: read-out: MIC (IC50) TM.
In data set [10] the test system is HCT-116 human colon cancer cells (p53 wild type). Nature of the data set: In vitro antiproliferative activity, MTS assay. The data set is classed as cell-based. The conditions noted are these: read-out: HCT-116 IC50. How it is done:
The antiproliferative activity of all of the compounds was examined against the human colon cancer (HCT-116) cell line using an MTS assay. The HCT-116 p53 wild type cell line was chosen on the basis of our former experience and some results on the activity of quinoline-based thiosemicarbazones that was published recently. Namely, compounds 4a–l have been tested previously for their wide-ranging anticancer activity. The antiproliferative activity of the compounds evaluated was assessed using Doxorubicin as a reference compound. In general, quinoline-based thiosemicarbazones 4 seem to have a much better anticancer activity than halogenophenyl compounds 3. Thus, the quinoline nucleus can be defined as being crucial for antiproliferative activity. A more detailed analysis of the anticancer activity of quinoline-based thiosemicarbazone is available. […] Nevertheless, some more general conclusions can be drawn from the gathered data. […] The free amino group or substitution pattern with small substituents such as methyl or ethyl are favorable for activity. According to our former results the chelating ability of the compounds may be one of the prerequisites of the antiproliferative activity. In this study we have measured the UV-VIS spectra of the compounds in presence of various concentration of Fe^3+ cations to observe its chelating potency (supplementary material). […] However as 4j give also two points at 330 and 385 nm, iron chelating ability should be regarded only as one of the factor influencing the biological activity.
The human colon cancer cell line HCT116 with the wild type p53 gene (p53^+/+) were obtained from Maria Sklodowska-Curie Memorial Cancer Center in Gliwice, Poland. Briefly, the cells were seeded in 96-well plates (3 × 10^3 cells/well) in cellular proliferation assays 24 h before the addition of the chelators. The assay was performed following a 72 h incubation with varying concentrations of the agents. Each compound was tested in triplicate in a single experiment with each experiment being repeated 3 times. After 72 h incubation with the compounds being investigated, 20 µL of MTS solution was added to each well (100 µL) and incubated for 1 h at 37 °C. The optical densities of the samples were analyzed at 490 nm. Results were expressed as a percentage of the control. The inhibitory concentration (IC50) was defined as the compound concentration necessary to reduce the absorbance to 50% of the untreated control.
(In general: Tetrazolium assays rely on reduction of a dye to a coloured formazan, in cell work by metabolically active cells.)

The subject of data set [11] is photosynthetic electron transport (PET) in spinach chloroplasts. The experiment in a line: Inhibition of photosynthetic electron transport (PET) in spinach chloroplasts. Format: biochemical, Spinacia oleracea L. The conditions noted are these: DCPIP photoreduction. How it is done:
Chloroplasts were prepared from spinach (Spinacia oleracea L.) according to Masarovicova and Kralova. The inhibition of the photosynthetic electron transport (PET) in spinach chloroplasts was determined spectrophotometrically (Genesys 6, Thermo Fisher Scientific, Waltham, MA, USA) using an artificial electron acceptor 2,6-dichlorophenol-indophenol (DCIPP) according to Kralova et al. and the rate of photosynthetic electron transport was monitored as a photoreduction of DCPIP. The measurements were carried out in a phosphate buffer (0.02 mol/L, pH 7.2) containing sucrose (0.4 mol/L), MgCl2 (0.005 mol/L) and NaCl (0.015 mol/L). The chlorophyll content was 30 mg/L in these experiments and the samples were irradiated (~100 W/m^2 with 10 cm distance) with a halogen lamp (250 W) using a 4 cm water filter to prevent warming of the samples (suspension temperature 22 °C). The compounds studied were dissolved in DMSO due to their limited water solubility. […] The inhibitory efficiency of the compounds studied was expressed by IC50 values, i.e., by the molar concentration of the compounds that caused a 50% decrease in the oxygen evolution rate relative to the untreated control.

[12] abbreviates: ATCC44859, 24 h and 48 h, only one value presented (inactive).
[13] abbreviates: Candida tropicalis, 156, 24 h and 48 h, only one value presented (inactive).
The mark [14] stands for this setting: ATCC6258, 24 h and 48 h, only one value presented (inactive).
The mark [15] stands for this setting: 24 h and 48 h, only one value presented (inactive).
The mark [16] stands for this setting: Trichosporon beigelii, 1188, 24 h and 48 h, only one value presented (inactive), read-out: MIC (IC80) TB.
The mark [17] stands for this setting: Aspergillus fumigatus, 231, 24 h and 48 h, only one value presented (inactive).
[18] abbreviates: Lichtheimia corymbifera, 272, 24 h and 48 h, only one value presented (inactive).
The mark [19] stands for this setting: Trichophyton mentagrophytes, 445, 72 h and 120 h, only one value presented (inactive).

In the case of `CN(C)C(=S)N/N=C/c1cccc(Cl)c1Cl` [Compound 3c, (E)-2-(2,3-Dichlorobenzylidene)-N,N-dimethylhydrazinecarbothioamide], the log k in [1] worked out at 0.7214. The MIC in data set [2] (setting [12]), in [3] (setting [13]), in data set [4] (setting [14]), in [5] (setting [15]) and in data set [6] (setting [16]) was more than 125 µM throughout. Further, the IC50 in data set [7] (setting [17]), in data set [8] (setting [18]) and in data set [9] (setting [19]) was more than 125 µM throughout.
For `CNC(=S)N/N=C/c1ccc(Br)cc1` [Compound 3l, (E)-2-(4-bromobenzylidene)-N-methylhydrazinecarbothioamide], the log k in data set [1] is reported as 0.6993. The MIC in data set [2] (setting [12]), in data set [3] (setting [13]), in [4] (setting [14]), in data set [5] (setting [15]) and in [6] (setting [16]) was more than 500 µM each time. Also, the IC50 is more than 500 µM in [7] (setting [17]); more than 500 µM in [8] (setting [18]); more than 500 µM in data set [9] (setting [19]); more than 60 µM in data set [10] (HCT-116, 72 h incubation, MTS).
Regarding `S=C(N/N=C/c1ccc(Br)cc1)Nc1ccccc1` [Compound 3o, (E)-2-(4-bromobenzylidene)-N-phenylhydrazinecarbothioamide], the log k in [1] was 0.8772. The MIC in data set [2] (setting [12]), in data set [3] (setting [13]), in data set [4] (setting [14]), in data set [5] (setting [15]) and in [6] (setting [16]) was more than 500 µM in each case. For the same compound, the IC50 in [7] (setting [17]) is more than 500 µM; in data set [8] (setting [18]) it was more than 500 µM; in data set [9] (setting [19]), more than 500 µM; in data set [10] (HCT-116, 72 h incubation, MTS), more than 60 µM.
`CNC(=S)NN=Cc1ccc2ccccc2n1` [Compound 4a]: the log k in [1] came out at 0.6329. Besides, the MIC is more than 500 µM in data set [2] (setting [12]); more than 500 µM in [3] (setting [13]); more than 500 µM in [4] (setting [14]); more than 500 µM in data set [5] (setting [15]); more than 500 µM in [6] (Trichosporon beigelii, 1188, read-out: MIC (IC80) TB). Besides, the IC50 in data set [7] (setting [17]) is more than 500 µM; in [8] (setting [18]) it was more than 500 µM; in data set [9] (setting [19]) it was more than 500 µM; in [10] (HCT-116, 72 h incubation, MTS) it was more than 25 µM.
In the case of `CCNC(=S)NN=Cc1ccc2ccccc2n1` [Compound 4c], the log k in data set [1] is 0.6892.
On the same count and under the same terms, the value for `S=C(NN=Cc1ccc2ccccc2n1)Nc1ccccc1` [Compound 4d] was 0.7553; that for `CCNC(=S)NN=Cc1ccc2cccc(O)c2n1` [Compound 4g] was 0.6810.
For the compound `CN(C)C(=O)Nc1ccc(Cl)c(Cl)c1` [DCMU, 3-(3,4-dichlorophenyl)-1,1-dimethylurea, reference compound], the IC50 in data set [11] was ~1.9 µM and 1.9 µM.
Consider `COc1cccc2c1C(=O)c1c(O)c3c(c(O)c1C2=O)C[C@@](O)(C(=O)CO)C[C@@H]3O[C@H]1C[C@H](N)[C@H](O)[C@H](C)O1` [DXR, doxorubicin, reference compound], for which, in data set [10] (HCT-116, 72 h), the IC50 turned out to be 10 ± 1.1 µM.
With `OC(Cn1cncn1)(Cn1cncn1)c1ccc(F)cc1F` [FLU, Fluconazole, reference compound], the MIC in data set [2] (ATCC44859, 24 h) was 0.06 µM (≈ 0.0184 µg/mL); in [2] (ATCC44859, 48 h), 0.12 µM (≈ 0.0368 µg/mL); in data set [3] (Candida tropicalis, 156, 24 h), 0.12 µM (≈ 0.0368 µg/mL); in data set [3] (Candida tropicalis, 156, 48 h) it was more than 125 µM; in data set [4] (ATCC6258, 24 h) it was 3.91 µM (≈ 1.2 µg/mL); in data set [4] (ATCC6258, 48 h), 15.6 µM (≈ 4.78 µg/mL). For the same compound, the MIC in data set [5] (24 h) was found to be 0.98 µM (≈ 0.3 µg/mL); in [5] (48 h) it was 3.91 µM (≈ 1.2 µg/mL); in data set [6] (Trichosporon beigelii, 1188, 24 h, read-out: MIC (IC80) TB), 0.24 µM (≈ 0.0735 µg/mL); in data set [6] (Trichosporon beigelii, 1188, 48 h, read-out: MIC (IC80) TB), 0.48 µM (≈ 0.147 µg/mL). For the same compound, the IC50 in [7] (Aspergillus fumigatus, 231, 24 h) was more than 125 µM; in data set [7] (Aspergillus fumigatus, 231, 48 h), more than 125 µM; in data set [8] (Lichtheimia corymbifera, 272, 24 h) it was more than 125 µM; in data set [8] (Lichtheimia corymbifera, 272, 48 h), more than 125 µM; in data set [9] (Trichophyton mentagrophytes, 445, 72 h) it was 1.95 µM; in data set [9] (Trichophyton mentagrophytes, 445, 120 h), 3.91 µM.
